pIC50: −log10 of the molar value.
Legend:
human Factor XIa = human Factor XIa (Homo sapiens (Human), UniProt P03951); experiment: Factor XIa Assay (fluorogenic substrate GPR-AFC); assay type: biochemical; conditions: Factor XIa (FXIa)
Human plasma kallikrein = Human plasma kallikrein (Homo sapiens (Human), UniProt P03952); experiment: Kallikrein Assay (fluorogenic substrate Acetyl-K-P-R-AFC); assay type: biochemical; conditions: Plasma Kallikrein (PKal)
Outline: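 Ki is derived from IC50 with the Cheng-Prusoff equation, and IC50 from the inflection point of a four-parameter logistic curve. The rate of AFC release is read with 0.5 nM purified enzyme and […] substrate at room temperature or 37 °C.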

Sequence of human Factor XIa (P03951 388-625 limits assumed): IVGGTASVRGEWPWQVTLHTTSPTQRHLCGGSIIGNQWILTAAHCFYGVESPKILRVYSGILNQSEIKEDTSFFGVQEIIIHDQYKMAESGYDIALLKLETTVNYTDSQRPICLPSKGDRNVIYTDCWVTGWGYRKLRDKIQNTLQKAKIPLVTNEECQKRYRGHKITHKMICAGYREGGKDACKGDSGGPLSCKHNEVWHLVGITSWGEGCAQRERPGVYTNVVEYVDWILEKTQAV
Sequence of human Factor XIa (P03951 19-387 partner limits assumed): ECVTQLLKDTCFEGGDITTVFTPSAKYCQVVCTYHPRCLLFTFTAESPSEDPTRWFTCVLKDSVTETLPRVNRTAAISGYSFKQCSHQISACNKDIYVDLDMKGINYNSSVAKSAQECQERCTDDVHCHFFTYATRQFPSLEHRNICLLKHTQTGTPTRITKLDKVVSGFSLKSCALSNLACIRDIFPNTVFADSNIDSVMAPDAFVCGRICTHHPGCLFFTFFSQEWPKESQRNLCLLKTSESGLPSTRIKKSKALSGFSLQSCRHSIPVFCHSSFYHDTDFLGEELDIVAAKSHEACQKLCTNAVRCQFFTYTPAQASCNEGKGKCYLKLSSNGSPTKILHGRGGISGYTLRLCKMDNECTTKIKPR
Sequence of Human plasma kallikrein (P03952 391-638): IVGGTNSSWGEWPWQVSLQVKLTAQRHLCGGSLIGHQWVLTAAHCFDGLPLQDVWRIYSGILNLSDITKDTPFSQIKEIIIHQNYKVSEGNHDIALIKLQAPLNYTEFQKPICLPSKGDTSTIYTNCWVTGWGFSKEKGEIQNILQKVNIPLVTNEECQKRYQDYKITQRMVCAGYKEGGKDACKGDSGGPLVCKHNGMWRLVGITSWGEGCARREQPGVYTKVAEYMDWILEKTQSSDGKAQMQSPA
Sequence of Human plasma kallikrein (P03952 20-390 partner): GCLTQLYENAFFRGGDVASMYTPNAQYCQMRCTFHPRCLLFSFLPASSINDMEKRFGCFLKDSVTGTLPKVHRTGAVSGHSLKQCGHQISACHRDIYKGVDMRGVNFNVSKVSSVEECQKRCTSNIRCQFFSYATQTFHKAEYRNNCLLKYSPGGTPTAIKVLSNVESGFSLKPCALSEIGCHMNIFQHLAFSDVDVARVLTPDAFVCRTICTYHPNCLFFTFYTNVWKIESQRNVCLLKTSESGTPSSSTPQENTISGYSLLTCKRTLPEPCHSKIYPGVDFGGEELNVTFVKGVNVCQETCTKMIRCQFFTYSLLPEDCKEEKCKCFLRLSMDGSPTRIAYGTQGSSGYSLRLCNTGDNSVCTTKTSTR

pIC50 (human Factor XIa)	pIC50 (Human plasma kallikrein)	Structure (SMILES)
6.24	9.15	[2H]C([2H])(O)c1ncc(-c2c(C(F)F)ccc(Cl)c2F)nc1C(=O)Nc1cnn([C@@H](C)c2cnc(N3C[C@H]4C[C@H]4C3=O)nc2)c1 [Example 182, 6-(3-Chloro-6-(difluoromethyl)-2-fluorophenyl)-3-(hydroxymethyl-d2)-N-(1-((S)-1-(2-((1R,5S)-2-oxo-3-azabicyclo[3.1.0]hexan-3-yl)pyrimidin-5-yl)ethyl)-1H-pyrazol-4-yl)pyrazine-2-carboxamide]
< 5.00	7.51	Cc1nc(N2C[C@H]3C[C@H]3C2=O)ncc1Cn1cc(NC(=O)c2nc(-c3c(C(F)F)ccc(Cl)c3F)cnc2C)nn1 [Example 183, 6-(3-Chloro-6-(difluoromethyl)-2-fluorophenyl)-3-methyl-N-(1-((4-methyl-2-((1R,5S)-2-oxo-3-azabicyclo[3.1.0]hexan-3-yl)pyrimidin-5-yl)methyl)-1H-1,2,3-triazol-4-yl)pyrazine-2-carboxamide]
5.11	8.09	Cc1nc(N2C[C@H]3C[C@H]3C2=O)ncc1Cn1ncc(NC(=O)c2nc(-c3c(C(F)F)ccc(Cl)c3F)cnc2C)n1 [Example 184, 6-(3-Chloro-6-(difluoromethyl)-2-fluorophenyl)-3-methyl-N-(2-((4-methyl-2-((1R,5S)-2-oxo-3-azabicyclo[3.1.0]hexan-3-yl)pyrimidin-5-yl)methyl)-2H-1,2,3-triazol-4-yl)pyrazine-2-carboxamide]
5.50	8.62	Cc1ncc(-c2c(C(F)F)ccc(Cl)c2F)nc1C(=O)Nc1cn(Cc2cnc(N3C[C@H]4C[C@H]4C3=O)c(C)n2)nn1 [Example 185, 6-(3-Chloro-6-(difluoromethyl)-2-fluorophenyl)-3-methyl-N-(1-((6-methyl-5-((1R,5S)-2-oxo-3-azabicyclo[3.1.0]hexan-3-yl)pyrazin-2-yl)methyl)-1H-1,2,3-triazol-4-yl)pyrazine-2-carboxamide]
5.86	8.85	Cc1ncc(-c2c(C(F)F)ccc(Cl)c2F)nc1C(=O)Nc1cnn(Cc2cnc(N3C[C@H]4C[C@H]4C3=O)c(C)n2)n1 [Example 186, 6-(3-Chloro-6-(difluoromethyl)-2-fluorophenyl)-3-methyl-N-(2-((6-methyl-5-((1R,5S)-2-oxo-3-azabicyclo[3.1.0]hexan-3-yl)pyrazin-2-yl)methyl)-2H-1,2,3-triazol-4-yl)pyrazine-2-carboxamide]
5.25	8.37	Cc1cc(Cn2ncc(NC(=O)c3nc(-c4c(C(F)F)ccc(Cl)c4F)cnc3C)n2)cnc1N1C[C@H]2C[C@H]2C1=O [Example 187, 6-(3-Chloro-6-(difluoromethyl)-2-fluorophenyl)-3-methyl-N-(2-((5-methyl-6-((1R,5S)-2-oxo-3-azabicyclo[3.1.0]hexan-3-yl)pyridin-3-yl)methyl)-2H-1,2,3-triazol-4-yl)pyrazine-2-carboxamide]
5.51	8.19	Cc1nc(N2C[C@H]3C[C@H]3C2=O)ncc1C1(n2cc(NC(=O)c3nc(-c4c(C(F)F)ccc(Cl)c4F)cnc3C)cn2)CCC1 [Example 188, 6-(3-Chloro-6-(difluoromethyl)-2-fluorophenyl)-3-methyl-N-(1-(1-(4-methyl-2-((1R,5S)-2-oxo-3-azabicyclo[3.1.0]hexan-3-yl)pyrimidin-5-yl)cyclobutyl)-1H-pyrazol-4-yl)pyrazine-2-carboxamide]
6.18	8.89	Cc1ncc(-c2c(C(F)F)ccc(Cl)c2F)nc1C(=O)Nc1cnn([C@@H](C)c2cnc(N3C[C@H]4C[C@H]4C3=O)c(N)c2)c1 [Example 189]
5.98	9.15	Cc1ncc(-c2c(C(F)F)ccc(Cl)c2F)nc1C(=O)Nc1cnn([C@H](C)c2cnc(N3C[C@H]4C[C@H]4C3=O)c(N)c2)c1 [Example 190]
6.95	8.96	Cc1ncc(-c2c(C(F)F)ccc(Cl)c2F)nc1C(=O)Nc1cnn(Cc2cnc(N3C[C@H]4C[C@H]4C3=O)c(N)c2)c1 [Example 191, N-(1-((5-Amino-6-((1R,5S)-2-oxo-3-azabicyclo[3.1.0]hexan-3-yl)pyridin-3-yl)methyl)-1H-pyrazol-4-yl)-6-(3-chloro-6-(difluoromethyl)-2-fluorophenyl)-3-methylpyrazine-2-carboxamide]
6.36	9.40	C[C@@H](c1cnc(N2C[C@H]3C[C@H]3C2=O)nc1)n1cc(NC(=O)c2nc(-c3c(C(F)F)ccc(Cl)c3F)cnc2CO)cn1 [Example 193]
5.48	8.07	Cc1nc(N2CCN(C)C2=O)ncc1[C@H](C)n1cc(NC(=O)c2nc(-c3c(C(F)F)ccc(Cl)c3F)cnc2C)cn1 [Example 207, (S)-6-(3-Chloro-6-(difluoromethyl)-2-fluorophenyl)-3-methyl-N-(1-(1-(4-methyl-2-(3-methyl-2-oxoimidazolidin-1-yl)pyrimidin-5-yl)ethyl)-1H-pyrazol-4-yl)pyrazine-2-carboxamide]
< 5.00	8.11	Cc1ncc(-c2c(C(F)F)ccc(Cl)c2F)nc1C(=O)Nc1cnn(Cc2ncc(N3C[C@H]4C[C@H]4C3=O)c(C)c2F)c1 [Example 215, 6-(3-Chloro-6-(difluoromethyl)-2-fluorophenyl)-N-(1-((3-fluoro-4-methyl-5-((1R,5S)-2-oxo-3-azabicyclo[3.1.0]hexan-3-yl)pyridin-2-yl)methyl)-1H-pyrazol-4-yl)-3-methylpyrazine-2-carboxamide]
5.07	8.55	Cc1ncc(-c2c(C(F)F)ccc(Cl)c2F)nc1C(=O)Nc1cnn([C@H](C)c2cnc(N3C[C@H]4C[C@H]4C3=O)c(O)c2)c1 [Example 216, 6-(3-Chloro-6-(difluoromethyl)-2-fluorophenyl)-N-(1-((R)-1-(5-hydroxy-6-((1R,5S)-2-oxo-3-azabicyclo[3.1.0]hexan-3-yl)pyridin-3-yl)ethyl)-1H-pyrazol-4-yl)-3-methylpyrazine-2-carboxamide]
5.38	7.83	Cc1ncc(-c2c(C(F)F)ccc(Cl)c2F)nc1C(=O)Nc1cnn([C@@H](C)c2cnc(N3C[C@H]4C[C@H]4C3=O)c(O)c2)c1 [Example 217, 6-(3-Chloro-6-(difluoromethyl)-2-fluorophenyl)-N-(1-((S)-1-(5-hydroxy-6-((1R,5S)-2-oxo-3-azabicyclo[3.1.0]hexan-3-yl)pyridin-3-yl)ethyl)-1H-pyrazol-4-yl)-3-methylpyrazine-2-carboxamide]
< 5.00	8.11	Cc1ncc(-c2c(C(F)F)ccc(Cl)c2F)nc1C(=O)Nc1cnn(C2(c3cnc(N4C[C@H]5C[C@H]5C4=O)c(C)n3)CC2)c1 [Example 220, 6-(3-Chloro-6-(difluoromethyl)-2-fluorophenyl)-3-methyl-N-(1-(1-(6-methyl-5-((1R,5S)-2-oxo-3-azabicyclo[3.1.0]hexan-3-yl)pyrazin-2-yl)cyclopropyl)-1H-pyrazol-4-yl)pyrazine-2-carboxamide]

Structure (SMILES)	pIC50 (human Factor XIa)	pIC50 (Human plasma kallikrein)
C[C@@H](c1cnc(N2C[C@H]3C[C@H]3C2=O)nc1)n1cc(NC(=O)c2nc(-c3c(C(F)F)ccc(Cl)c3F)cnc2COC(C)(C)C)cn1 [Example 192, 3-(tert-Butoxymethyl)-6-(3-chloro-6-(difluoromethyl)-2-fluorophenyl)-N-(1-((S)-1-(2-((1R,5S)-2-oxo-3-azabicyclo[3.1.0]hexan-3-yl)pyrimidin-5-yl)ethyl)-1H-pyrazol-4-yl)pyrazine-2-carboxamide]	5.17	8.36

Reference: US20230286958A1, “PLASMA KALLIKREIN INHIBITORS” (Merck Sharp & Dohme LLC, priority 2020, published 2023)
